Measurements as given in paper PMC2267855, “Site-directed mutagenesis of Arginine282 suggests how protons and peptides are co-transported by rabbit PepT1” (The International Journal of Biochemistry & Cell Biology, 2008).
Positions count from the first letter of the chain named. Where a SMILES comes first, the peptide text is derived from it.

How the values were obtained:
Format in all cases: cell-based, rabbit
Details in all cases: pHout 5.5, 0.4 μM [3H]-D-Phe-L-Gln
R282E-PepT1 = molecular target: T1, R282E-PepT1 (Oryctolagus cuniculus, UniProt P36836, R282E); experiment: Inhibition of [3H]-D-Phe-L-Gln uptake into Xenopus oocytes expressing R282E-PepT1 (competition, Ki)
T1 construct: expressed in transfected cells; host or cells: Xenopus laevis oocytes injected with cRNA
T1 sequence (P36836 1-707 R282E): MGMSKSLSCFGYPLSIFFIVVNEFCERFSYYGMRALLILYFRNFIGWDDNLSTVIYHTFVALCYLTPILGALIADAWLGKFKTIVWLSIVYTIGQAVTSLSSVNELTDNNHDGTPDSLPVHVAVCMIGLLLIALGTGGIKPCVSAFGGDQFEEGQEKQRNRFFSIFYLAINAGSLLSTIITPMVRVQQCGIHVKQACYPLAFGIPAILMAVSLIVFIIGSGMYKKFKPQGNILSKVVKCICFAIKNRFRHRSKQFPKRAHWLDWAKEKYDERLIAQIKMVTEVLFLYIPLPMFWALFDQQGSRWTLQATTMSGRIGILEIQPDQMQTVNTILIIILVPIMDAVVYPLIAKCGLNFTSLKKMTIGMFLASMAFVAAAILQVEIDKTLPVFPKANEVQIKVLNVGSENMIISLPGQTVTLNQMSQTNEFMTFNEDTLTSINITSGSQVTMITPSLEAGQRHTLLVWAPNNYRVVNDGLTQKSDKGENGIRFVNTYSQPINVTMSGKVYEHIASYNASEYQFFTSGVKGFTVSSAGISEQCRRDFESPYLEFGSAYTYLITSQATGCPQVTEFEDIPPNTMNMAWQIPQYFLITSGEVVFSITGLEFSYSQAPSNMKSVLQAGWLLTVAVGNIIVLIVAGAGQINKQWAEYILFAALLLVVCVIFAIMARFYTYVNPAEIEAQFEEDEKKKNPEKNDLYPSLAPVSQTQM
Procedure: (§1) Zero-trans uptake of [^3H]-D-Phe-L-Gln (17.4 Ci/mmole, custom synthesised, Cambridge Research Biochemicals, Stockton-on-Tees, UK) was performed as previously described ([Meredith, 2004]). Briefly, 5 oocytes were incubated in 100 μl of uptake medium (95 mM NaCl, 2 mM KCl, 1 mM CaCl2, 0.42 mM MgCl2, 10 mM Tris/Hepes pH 7.4 or Tris/Mes pH 5.5) with tracer (0.4 μM) [^3H]-D-Phe-L-Gln. After incubation, the oocytes were washed sequentially five times in 1 ml of ice-cold 120 mM NaCl solution, lysed individually with 100 μl 2% (w/v) SDS and liquid scintillation counted. As a control non-injected oocytes were also incubated in uptake medium with [^3H]-D-Phe-L-Gln as above.
(§2) The affinity of wild-type and mutant PepT1 were assessed by competition studies with 0.4 μM [^3H]-D-Phe-L-Gln and Gly-L-Gln present in the uptake medium in concentrations from 0 to 2 mM using the protocol above, and the Ki calculated using the method of [Deves and Boyd (1989)].

R282D-PepT1 = molecular target: T2, R282D-PepT1 (Oryctolagus cuniculus, UniProt P36836, R282D); experiment: Inhibition of [3H]-D-Phe-L-Gln uptake into Xenopus oocytes expressing R282D-PepT1 (competition, Ki)
T2 construct: expressed in transfected cells; host or cells: Xenopus laevis oocytes injected with cRNA
T2 sequence (P36836 1-707 R282D): T1 sequence (P36836 1-707 R282E) with E282D
Procedure: as §1, §2

R282A-PepT1 = molecular target: T3, R282A-PepT1 (Oryctolagus cuniculus, UniProt P36836, R282A); experiment: Inhibition of [3H]-D-Phe-L-Gln uptake into Xenopus oocytes expressing R282A-PepT1 (competition, Ki)
T3 construct: expressed in transfected cells; host or cells: Xenopus laevis oocytes injected with cRNA
T3 sequence (P36836 1-707 R282A): T1 sequence (P36836 1-707 R282E) with E282A
Procedure: as §1, §2

NCC(=O)N[C@@H](CCC(N)=O)C(=O)O [Gly-L-Gln] (H-Gly-Gln-OH)
Ki (R282E-PepT1): 350 ± 170 µM
Ki (R282D-PepT1): 340 ± 270 µM
Ki (R282A-PepT1): 300 ± 170 µM
